Values quoted from earlier work as cited in patent US20160378912A1, “STRUCTURE-BASED MODELING AND TARGET-SELECTIVITY PREDICTION” (EPIGENETX, LLC, priority 2013, published 2016).

Key:
HDAC4 = HDAC4 (Homo sapiens, UniProt P56524); conditions: cited from earlier work
HDAC7 = target: T1, HDAC7 (Homo sapiens, UniProt Q8WUI4); conditions: cited from earlier work
T1 sequence (Q8WUI4 1-952): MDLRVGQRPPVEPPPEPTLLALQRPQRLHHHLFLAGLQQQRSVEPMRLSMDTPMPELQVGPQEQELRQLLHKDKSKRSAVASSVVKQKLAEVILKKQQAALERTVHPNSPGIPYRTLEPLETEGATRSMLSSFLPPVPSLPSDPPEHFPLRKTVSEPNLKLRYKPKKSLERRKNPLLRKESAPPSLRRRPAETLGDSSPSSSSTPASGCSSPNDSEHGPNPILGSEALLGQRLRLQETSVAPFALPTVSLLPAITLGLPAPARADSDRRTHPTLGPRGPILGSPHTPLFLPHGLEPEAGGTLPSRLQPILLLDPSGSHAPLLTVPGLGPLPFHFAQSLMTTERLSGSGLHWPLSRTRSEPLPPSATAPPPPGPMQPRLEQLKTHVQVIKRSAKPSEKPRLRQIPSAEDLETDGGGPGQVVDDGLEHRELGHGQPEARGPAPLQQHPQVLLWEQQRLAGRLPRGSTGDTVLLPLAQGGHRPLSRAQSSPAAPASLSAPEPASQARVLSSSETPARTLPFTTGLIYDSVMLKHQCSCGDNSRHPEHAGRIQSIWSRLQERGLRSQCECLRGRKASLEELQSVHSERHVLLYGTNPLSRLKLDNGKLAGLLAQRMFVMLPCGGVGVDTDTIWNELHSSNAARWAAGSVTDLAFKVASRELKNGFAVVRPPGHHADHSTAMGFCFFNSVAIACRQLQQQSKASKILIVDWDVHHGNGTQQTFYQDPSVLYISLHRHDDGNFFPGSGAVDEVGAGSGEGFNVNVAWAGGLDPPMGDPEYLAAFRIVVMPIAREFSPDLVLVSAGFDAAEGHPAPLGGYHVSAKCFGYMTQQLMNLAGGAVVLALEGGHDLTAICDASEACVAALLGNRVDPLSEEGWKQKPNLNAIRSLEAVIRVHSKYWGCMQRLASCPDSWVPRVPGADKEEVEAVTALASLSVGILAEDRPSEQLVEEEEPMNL

[1] = training set, read-out: HDACs inhibitory activities IC50

Sequence of HDAC4 (P56524 whole entry): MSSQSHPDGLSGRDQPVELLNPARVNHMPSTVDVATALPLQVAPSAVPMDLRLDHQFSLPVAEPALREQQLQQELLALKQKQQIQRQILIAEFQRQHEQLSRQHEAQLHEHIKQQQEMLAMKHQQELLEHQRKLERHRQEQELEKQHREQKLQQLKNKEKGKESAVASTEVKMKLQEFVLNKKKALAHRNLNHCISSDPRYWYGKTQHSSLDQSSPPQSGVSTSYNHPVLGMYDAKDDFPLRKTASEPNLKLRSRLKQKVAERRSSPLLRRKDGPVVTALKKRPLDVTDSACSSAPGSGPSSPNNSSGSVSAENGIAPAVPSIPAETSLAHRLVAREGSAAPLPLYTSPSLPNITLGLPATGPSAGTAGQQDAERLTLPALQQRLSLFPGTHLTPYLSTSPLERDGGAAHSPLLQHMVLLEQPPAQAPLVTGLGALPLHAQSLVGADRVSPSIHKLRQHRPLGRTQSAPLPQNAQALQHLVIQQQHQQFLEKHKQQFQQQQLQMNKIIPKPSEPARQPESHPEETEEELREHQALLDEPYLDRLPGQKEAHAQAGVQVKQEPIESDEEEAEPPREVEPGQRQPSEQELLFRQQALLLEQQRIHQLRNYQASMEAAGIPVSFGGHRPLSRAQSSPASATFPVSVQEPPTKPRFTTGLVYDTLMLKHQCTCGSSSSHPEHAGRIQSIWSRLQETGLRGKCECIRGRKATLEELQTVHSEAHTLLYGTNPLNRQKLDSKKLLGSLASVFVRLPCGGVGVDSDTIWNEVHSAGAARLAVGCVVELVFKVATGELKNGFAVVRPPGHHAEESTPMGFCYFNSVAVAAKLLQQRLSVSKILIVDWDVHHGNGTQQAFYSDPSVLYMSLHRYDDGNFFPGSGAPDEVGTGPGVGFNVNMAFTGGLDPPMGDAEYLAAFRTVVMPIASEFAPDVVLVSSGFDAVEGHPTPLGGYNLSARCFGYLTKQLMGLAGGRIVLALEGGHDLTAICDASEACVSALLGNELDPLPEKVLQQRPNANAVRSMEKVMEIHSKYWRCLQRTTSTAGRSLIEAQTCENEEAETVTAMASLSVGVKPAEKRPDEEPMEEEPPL

For `CCCC(=O)O` [NABUT, Butyrate], the pIC50 (HDAC4; training set composition) is given as 4.52, the IC50 (HDAC4; [1]) is given as 30 µM and the pIC50 (HDAC7; training set composition) is given as 4.52. For the same compound, the IC50 (HDAC7; [1]) was 30 µM.
